Source: patent US11655246B2, “Aminothiazole compounds as inhibitors of CTPS1” (STEP PHARMA S.A.S., priority 2017, dated 2023)
Where two headings read alike, the source gives them in different places.

Molecular target: T1, human CTPS1 (Homo sapiens, UniProt P17812)
T1 construct: purchased Proteros biostructures GmbH
T1 sequence (P17812 1-591): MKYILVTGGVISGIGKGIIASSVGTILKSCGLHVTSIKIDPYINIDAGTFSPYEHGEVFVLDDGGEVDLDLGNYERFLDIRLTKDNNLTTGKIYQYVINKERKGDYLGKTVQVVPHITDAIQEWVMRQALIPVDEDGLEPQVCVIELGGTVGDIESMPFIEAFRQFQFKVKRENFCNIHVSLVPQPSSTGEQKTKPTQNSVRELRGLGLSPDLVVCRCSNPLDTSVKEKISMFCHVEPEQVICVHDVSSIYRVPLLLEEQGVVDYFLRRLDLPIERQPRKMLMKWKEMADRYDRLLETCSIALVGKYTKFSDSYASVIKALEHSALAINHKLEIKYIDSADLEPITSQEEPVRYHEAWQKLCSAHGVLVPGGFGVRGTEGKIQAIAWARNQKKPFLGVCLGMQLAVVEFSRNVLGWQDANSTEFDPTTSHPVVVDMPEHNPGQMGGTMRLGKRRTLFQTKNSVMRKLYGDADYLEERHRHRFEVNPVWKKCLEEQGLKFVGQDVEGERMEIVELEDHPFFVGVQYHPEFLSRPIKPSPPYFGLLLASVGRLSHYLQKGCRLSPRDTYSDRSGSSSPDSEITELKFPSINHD
Assay: Human CTPS1 enzyme inhibition (ADP-Glo Max assay)
Type: biochemical
Conditions: read-out: CTPS1 (Human CTPS1 Enzyme Inhibition data grouped by potency range)
Summary of the method: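 ADP-Glo Max luminescence detection of ATP-to-ADP conversion by the enzyme, in 50 mM Tris, 10 mM MgCl2, 0.01% Tween-20, pH 8.0, with 2 mM L-cysteine added fresh. Enzyme preincubated with compound 10 minutes at 25° C. Percentage inhibition calculated per compound concentration.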

[1] = Table 18, additional potency data, 25° C.

| SMILES | IC50 [1] | IC50 (Table 17, 25° C.) |
| --- | --- | --- |
| CCS(=O)(=O)Nc1nc(C(C)(C)C(=O)Nc2ccc(-c3cncc(OC(C)C)n3)cc2)cs1 [T388, 2-(2-(ethylsulfonamido)thiazol-4-yl)-N-(4-(6-isopropoxypyrazin-2-yl)phenyl)-2-methylpropanamide] | < 0.1 µM | – |
| CCOc1cncc(-c2ccc(NC(=O)C(C)(C)c3csc(NS(=O)(=O)CC)n3)nc2)n1 [T382, N-(5-(6-ethoxypyrazin-2-yl)pyridin-2-yl)-2-(2-(ethylsulfonamido)thiazol-4-yl)-2-methylpropanamide] | < 0.1 µM | – |
| CCOc1cncc(-c2ccc(NC(=O)C(NC(C)=O)c3csc(NS(=O)(=O)C4CC4)n3)cc2)n1 (centres unmarked) [T326, 2-acetamido-2-(2-(cyclopropanesulfonamido)thiazol-4-yl)-N-(4-(6-ethoxypyrazin-2-yl)phenyl)acetamide] | < 0.1 µM | – |
| CCOc1cncc(-c2cc(F)c(NC(=O)C(OC)c3csc(NS(=O)(=O)C4CC4)n3)c(F)c2)n1 (centres unmarked) [T453] | < 0.1 µM | – |
| COC(C(=O)Nc1ccc(-c2cncc(C(F)(F)F)c2)cc1F)c1csc(NS(=O)(=O)C2CC2)n1 (centres unmarked) [T448] | < 0.1 µM | – |
| CC(C)(C(=O)Nc1ccc(-c2cccnc2)cc1)c1csc(NS(=O)(=O)C2CCCC2)n1 [T333, 2-(2-(cyclopentanesulfonamido)thiazol-4-yl)-2-methyl-N-(4-(pyridin-3-yl)phenyl)propanamide] | 1 to 10 µM | – |
| CCS(=O)(=O)Nc1nc(C(C)(C)C(=O)Nc2ccc(-c3cncc(C#N)c3)cc2)cs1 [T384, N-(4-(5-cyanopyridin-3-yl)phenyl)-2-(2-(ethylsulfonamido)thiazol-4-yl)-2-methylpropanamide] | 0.1 to 1 µM | – |
| CCC(C(=O)Nc1ccc(-c2cncc(OC3CC3)n2)cc1)c1csc(NS(=O)(=O)C2CC2)n1 (centres unmarked) [T77] | – | < 0.1 µM |
| CC(C)(C(=O)Nc1ccc(-c2cncc(C#N)n2)cc1F)c1csc(NS(=O)(=O)C2CC2)n1 [T355, N-(4-(6-cyanopyrazin-2-yl)-2-fluorophenyl)-2-(2-(cyclopropanesulfonamido)thiazol-4-yl)-2-methylpropanamide] | 1 to 10 µM | – |
| CCC(C(=O)Nc1ccc(-c2cncc(F)c2)cn1)c1csc(NS(=O)(=O)C2CC2)n1 (centres unmarked) [T179] | – | < 0.1 µM |
| CCC(C(=O)Nc1ccc(-c2cncc(C#N)n2)cc1F)c1csc(NS(=O)(=O)C2CC2)n1 (centres unmarked) [T404, N-(4-(6-cyanopyrazin-2-yl)-2-fluorophenyl)-2-(2-(cyclopropanesulfonamido)thiazol-4-yl)butanamide] | 0.1 to 1 µM | – |
| CCc1cncc(-c2ccc(NC(=O)C(CC)c3csc(NS(=O)(=O)C4CC4)n3)c(F)c2)n1 (centres unmarked) [T405, 2-(2-(cyclopropanesulfonamido)thiazol-4-yl)-N-(4-(6-ethylpyrazin-2-yl)-2-fluorophenyl)butanamide] | < 0.1 µM | – |
| CCC(C(=O)Nc1ccc(-c2cncc(C#N)c2)cn1)c1csc(NS(=O)(=O)C2CC2)n1 (centres unmarked) [T180] | – | < 0.1 µM |
| CCC(C(=O)Nc1ccc(-c2cncc(C#N)c2)cc1F)c1csc(NS(=O)(=O)C2CC2)n1 (centres unmarked) [T202] | – | < 0.1 µM |
| COCCC(C(=O)Nc1ccc(-c2cncc(C(F)(F)F)n2)cn1)c1csc(NS(=O)(=O)C2CC2)n1 (centres unmarked) [T59] | – | < 0.1 µM |
| CCOc1cncc(-c2ccc(NC(=O)C(CC)c3csc(NS(=O)(=O)C4CC4)n3)c(F)c2)n1 (single isomer, unassigned) [T412, 2-(2-(cyclopropanesulfonamido)thiazol-4-yl)-N-(4-(6-ethoxypyrazin-2-yl)-2-fluorophenyl)butanamide] | < 0.1 µM | – |
| CCOc1cncc(-c2cnc(NC(=O)C(CC)c3csc(NS(=O)(=O)C4CC4)n3)c(F)c2)n1 (single isomer, unassigned) [T456] | < 0.1 µM | – |
| CCC(C(=O)Nc1ccc(-c2cncc(C(C)C)n2)cn1)c1csc(NS(=O)(=O)C2CC2)n1 (centres unmarked) [T401, 2-(2-(cyclopropanesulfonamido)thiazol-4-yl)-N-(5-(6-isopropylpyrazin-2-yl)pyridin-2-yl)butanamide] | 0.1 to 1 µM | – |

| SMILES | IC50 [1] | IC50 (Table 17, 25° C.) |
| --- | --- | --- |
| CCOc1cncc(-c2ccc(NC(=O)C(CC)c3csc(NS(=O)(=O)C4CC4)n3)nc2)n1 (centres unmarked) [T177] | – | < 0.1 µM |
| CC(C)(C(=O)Nc1ccc(-c2cccnc2)cc1Cl)c1csc(NS(=O)(=O)C2CC2)n1 [T41] | – | 0.1 to 1 µM |
| CCOc1cncc(-c2ccc(NC(=O)C(C)(C)c3csc(NS(=O)(=O)C4CC4)n3)c(C(C)C)c2)n1 [T362, 2-(2-(cyclopropanesulfonamido)thiazol-4-yl)-N-(4-(6-ethoxypyrazin-2-yl)-2-isopropylphenyl)-2-methylpropanamide] | < 0.1 µM | – |
| CCC(C(=O)Nc1ccc(-c2cncc(C(F)(F)F)n2)cn1)c1csc(NS(=O)(=O)C2CC2)n1 (centres unmarked) [T175] | – | < 0.1 µM |
| CCOc1cncc(-c2cnc(NC(=O)C(CCOC)c3csc(NS(=O)(=O)C4CC4)n3)c(F)c2)n1 (centres unmarked) [T435] | < 0.1 µM | – |
| CCC(C(=O)Nc1ncc(-c2cncc(C#N)n2)cc1F)c1csc(NS(=O)(=O)C2CC2)n1 (centres unmarked) [T184] | – | 1 to 10 µM |
| CCOc1cncc(-c2ccc(NC(=O)C(C)(C)c3nc(NS(=O)(=O)C4CC4)sc3C)nc2)n1 [T342, 2-(2-(cyclopropanesulfonamido)-5-methylthiazol-4-yl)-N-(5-(6-ethoxypyrazin-2-yl)pyridin-2-yl)-2-methylpropanamide] | < 0.1 µM | – |
| CC(C(=O)Nc1ccc(-c2cncc(Cl)c2)cc1)c1csc(NS(=O)(=O)C2CC2)n1 (centres unmarked) [T95] | – | < 0.1 µM |
| CCOc1cncc(-c2ccc3c(c2)CCN3C(=O)C(CC)c2csc(NS(=O)(=O)C3CC3)n2)n1 (centres unmarked) [T206] | – | < 0.1 µM |
| CCC(C(=O)Nc1ccc(-c2cncc(C(F)(F)F)c2)cc1F)c1csc(NS(=O)(=O)C2CC2)n1 (single isomer, unassigned) [T416, 2-(2-(cyclopropanesulfonamido)thiazol-4-yl)-N-(2-fluoro-4-(5-(trifluoromethyl)pyridin-3-yl)phenyl)butanamide] | < 0.1 µM | – |
| CC(C)(C(=O)Nc1ccc(-c2cncc(OCC3CCCC3)n2)cc1)c1csc(NS(=O)(=O)C2CC2)n1 [T378, N-(4-(6-(cyclopentylmethoxy)pyrazin-2-yl)phenyl)-2-(2-(cyclopropanesulfonamido)thiazol-4-yl)-2-methylpropanamide] | 1 to 10 µM | – |
| COCCC(C(=O)Nc1ccc(-c2cncc(OC(C)C)n2)cc1F)c1csc(NS(=O)(=O)C2CC2)n1 (centres unmarked) [T400, 2-(2-(cyclopropanesulfonamido)thiazol-4-yl)-N-(2-fluoro-4-(6-isopropoxypyrazin-2-yl)phenyl)-4-methoxybutanamide] | < 0.1 µM | – |
| CC(C)C(C(=O)Nc1ccc(-c2cnccn2)cc1)c1csc(NS(=O)(=O)C2CC2)n1 (centres unmarked) [T74] | – | 0.1 to 1 µM |
| CCC(C(=O)Nc1ccc(-c2cncc(C(F)(F)F)c2)cc1)c1csc(NS(=O)(=O)C2CC2)n1 (centres unmarked) [T193] | – | < 0.1 µM |
| CCS(=O)(=O)Nc1nc(C(C)(C)C(=O)Nc2ccc(-c3cncc(C(F)(F)F)n3)cn2)cs1 [T381, 2-(2-(ethylsulfonamido)thiazol-4-yl)-2-methyl-N-(5-(6-(trifluoromethyl)pyrazin-2-yl)pyridin-2-yl)propanamide] | < 0.1 µM | – |
| COc1cncc(-c2ccc(NC(=O)C(C)(C)c3csc(NS(=O)(=O)C4CC4)n3)cc2)c1 [T15, 2-(2-(cyclopropanesulfonamido)thiazol-4-yl)-N-(4-(5-methoxypyridin-3-yl)phenyl)-2-methylpropanamide] | – | 0.1 to 1 µM |
| O=C(Nc1ccc(-c2cccnc2)cc1)C1CCCc2sc(NS(=O)(=O)C3CC3)nc21 (centres unmarked) [T84] | – | 0.1 to 1 µM |
